Measurements published in US9187472B2 (AbbVie Inc., priority 2012, dated 2015).

Columns and labels:
PC3 cells = test: NAMPT Cell Proliferation Assay; assay type: cell-based; settings: Homo sapiens, PC-3, 120 h, 5 days incubation, cell viability by Cell Titer Glo
Summary of the method: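 Following overnight attachment in RPMI with 10% heat-inactivated FBS, PC3 cells at 500 per well receive compounds spanning 10 μM down to 1×10^−5 μM. Growth is assessed by luminescent viability read after 5 days.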

NAMPT = NAMPT (Homo sapiens, UniProt P43490); test: TR-FRET Binding Assay of NAMPT with PRPP; settings: with 200 μM PRPP and 2.5 mM ATP; 2 nM NAMPT, 2 nM probe, 16 hours equilibration
Sequence of NAMPT (P43490 whole entry): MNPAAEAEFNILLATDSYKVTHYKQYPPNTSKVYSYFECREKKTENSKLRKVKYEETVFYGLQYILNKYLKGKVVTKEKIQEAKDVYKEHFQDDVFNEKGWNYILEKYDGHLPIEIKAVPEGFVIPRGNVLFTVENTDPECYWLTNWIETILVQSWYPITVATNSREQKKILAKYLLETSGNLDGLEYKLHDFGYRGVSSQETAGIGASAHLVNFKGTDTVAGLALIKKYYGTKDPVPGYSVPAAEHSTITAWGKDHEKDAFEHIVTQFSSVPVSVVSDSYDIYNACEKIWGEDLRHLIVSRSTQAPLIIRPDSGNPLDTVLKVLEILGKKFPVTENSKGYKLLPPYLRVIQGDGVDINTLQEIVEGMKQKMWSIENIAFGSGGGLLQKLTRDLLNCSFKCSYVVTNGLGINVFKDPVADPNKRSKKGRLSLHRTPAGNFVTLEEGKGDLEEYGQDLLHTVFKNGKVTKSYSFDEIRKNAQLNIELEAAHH
Summary of the method: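 TR-FRET probe-displacement binding with 2 nM NAMPT, 2 nM probe and 1 nM Tb-anti-His antibody, run in the presence of 200 μM PRPP and 2.5 mM ATP at 2% DMSO. Equilibrated 16 hours before reading so test compounds could undergo enzymatic modification.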

[1] = target: NAMPT (human, recombinant, C-terminally His-tagged) (Homo sapiens, UniProt P43490); test: Time-Resolved Fluorescence Resonance Energy Transfer (TR-FRET) Binding Assay of NAMPT; settings: without substrates; 6.8 nM NAMPT, 200 nM probe, 3 hours equilibration
Sequence of NAMPT (human, recombinant, C-terminally His-tagged) (P43490 whole entry): as above
Summary of the method: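 11-pt half-log compound series; final 6.8 nM NAMPT, 200 nM OG488 nicotinamide-competitive probe, 1 nM Tb-anti-His Ab, 2% DMSO, HEPES pH 7.5/NaCl/MgCl2/DTT/glycerol buffer. 3 h RT equilibration. Em520/Em495 ratio (Ex 337 nm), control-normalized, 4-parameter fit → IC50.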

Compound	IC50 (PC3 cells) [nM]	IC50 (NAMPT) [nM]	IC50 [1] [nM]
O=C(NCc1ccn2ccnc2c1)c1ccc(-c2cnn(C3CCS(=O)(=O)C3)c2)s1 (stereo not drawn) [Example 296, 5-[1-(1,1-dioxidotetrahydrothiophen-3-yl)-1H-pyrazol-4-yl]-N-(imidazo[1,2-a]pyridin-7-ylmethyl)thiophene-2-carboxamide]	11.5	0.226	67
O=C(NCc1ccn2ccnc2c1)c1cnc(C2=CCN(C(=O)c3ccccc3)CC2)s1 [Example 297, 2-(1-benzoyl-1,2,3,6-tetrahydropyridin-4-yl)-N-(imidazo[1,2-a]pyridin-7-ylmethyl)-1,3-thiazole-5-carboxamide]	35.8	0.286	177
CC(C)(O)Cn1cc(-c2ccc(C(=O)NCc3ccn4ccnc4c3)cc2)cn1 [Example 298, 4-[1-(2-hydroxy-2-methylpropyl)-1H-pyrazol-4-yl]-N-(imidazo[1,2-a]pyridin-7-ylmethyl)benzamide]	2370	0.557	3410
O=C(NCc1ccn2ccnc2c1)c1ccc(-c2ccccc2)s1 [Example 299, N-(imidazo[1,2-a]pyridin-7-ylmethyl)-5-phenylthiophene-2-carboxamide]	8640	0.283	172
CS(=O)(=O)CCn1cc(-c2ccc(C(=O)NCc3ccn4ccnc4c3)s2)cn1 [Example 300, N-(imidazo[1,2-a]pyridin-7-ylmethyl)-5-{1-[2-(methylsulfonyl)ethyl]-1H-pyrazol-4-yl}thiophene-2-carboxamide]	28.7	0.169	61.4
CC(C)(C)OC(=O)N1CCC(c2ccc(C(=O)NCc3ccn4ccnc4c3)cc2)C1 (stereo not drawn) [Example 301, tert-butyl 3-{4-[(imidazo[1,2-a]pyridin-7-ylmethyl)carbamoyl]phenyl}pyrrolidine-1-carboxylate]	25.8	0.301	288
CC(C)(C)OC(=O)N1CCC(c2ccc(NC(=O)NCc3ccn4ccnc4c3)cc2)C1 (stereo not drawn) [Example 302, tert-butyl 3-(4-{[(imidazo[1,2-a]pyridin-7-ylmethyl)carbamoyl]amino}phenyl)pyrrolidine-1-carboxylate]	19.3	0.435	160
O=C(NCc1ccn2ccnc2c1)Nc1ccc(NS(=O)(=O)c2ccccc2-c2ccccc2)cc1 [Example 303, N-(4-{[(imidazo[1,2-a]pyridin-7-ylmethyl)carbamoyl]amino}phenyl)biphenyl-2-sulfonamide]	1.79	0.169	9.99
C[C@@H](O)Cn1cc(-c2ccc(C(=O)NCc3ccn4ccnc4c3)s2)cn1 [Example 304, 5-{1-[(2R)-2-hydroxypropyl]-1H-pyrazol-4-yl}-N-(imidazo[1,2-a]pyridin-7-ylmethyl)thiophene-2-carboxamide]	18.8	0.169	66.2
O=C(CC1CCCC1)Nc1ccc(C(=O)NCc2ccn3ccnc3c2)cc1F [Example 305, 4-[(cyclopentylacetyl)amino]-3-fluoro-N-(imidazo[1,2-a]pyridin-7-ylmethyl)benzamide]	1170	0.449	494
CC(C)C(=O)N1CC=C(c2ccc(NC(=O)NCc3ccn4ccnc4c3)c(F)c2)CC1 [Example 306, 1-{2-fluoro-4-[1-(2-methylpropanoyl)-1,2,3,6-tetrahydropyridin-4-yl]phenyl}-3-(imidazo[1,2-a]pyridin-7-ylmethyl)urea]	21.9	0.169	144
O=C(NCc1ccn2ccnc2c1)Nc1ccc(C2=CCN(C(=O)C3CCCO3)CC2)cc1F (stereo not drawn) [Example 307, 1-{2-fluoro-4-[1-(tetrahydrofuran-2-ylcarbonyl)-1,2,3,6-tetrahydropyridin-4-yl]phenyl}-3-(imidazo[1,2-a]pyridin-7-ylmethyl)urea]	13.6	0.169	50.8
O=C(NCc1ccn2ccnc2c1)c1ccc(C2CCN(C(=O)[C@H]3CCOC3)CC2)cc1 [Example 308, N-(imidazo[1,2-a]pyridin-7-ylmethyl)-4-{1-[(3S)-tetrahydrofuran-3-ylcarbonyl]piperidin-4-yl}benzamide]	29.5	0.169	306
O=C(NCc1ccn2ccnc2c1)c1ccc(C2CCN(C(=O)[C@@H]3CCOC3)CC2)cc1 [Example 309, N-(imidazo[1,2-a]pyridin-7-ylmethyl)-4-{1-[(3R)-tetrahydrofuran-3-ylcarbonyl]piperidin-4-yl}benzamide]	54.8	0.169	117
O=C(NCc1ccn2ccnc2c1)c1ccc(C2CCN(C(=O)[C@H]3CCCO3)CC2)cc1 [Example 310, N-(imidazo[1,2-a]pyridin-7-ylmethyl)-4-{1-[(2R)-tetrahydrofuran-2-ylcarbonyl]piperidin-4-yl}benzamide]	24.4	0.217	564
O=C(NCc1ccn2ccnc2c1)c1ccc(C2CCN(C(=O)[C@@H]3CCCO3)CC2)cc1 [Example 311, N-(imidazo[1,2-a]pyridin-7-ylmethyl)-4-{1-[(2S)-tetrahydrofuran-2-ylcarbonyl]piperidin-4-yl}benzamide]	19.1	0.274	289
O=C(NCc1ccn2ccnc2c1)c1ccc(C2CCN(C(=O)CC3CC3)CC2)cc1 [Example 312, 4-[1-(cyclopropylacetyl)piperidin-4-yl]-N-(imidazo[1,2-a]pyridin-7-ylmethyl)benzamide]	65	0.243	165
CC(=O)N1CCC(c2ccc(C(=O)NCc3ccn4ccnc4c3)cc2)CC1 [Example 313, 4-(1-acetylpiperidin-4-yl)-N-(imidazo[1,2-a]pyridin-7-ylmethyl)benzamide]	820	0.36	531
CC(C)(C)OC(=O)N1CC=C(c2ccc(CC(=O)Nc3ccc4nccn4c3)cc2)CC1 [Example 314, tert-butyl 4-{4-[2-(imidazo[1,2-a]pyridin-6-ylamino)-2-oxoethyl]phenyl}-3,6-dihydropyridine-1(2H)-carboxylate]	395	0.581	1980
CC(C)Cn1cc(-c2ccc(C(=O)NCc3ccn4ccnc4c3)cc2)cn1 [Example 315, N-(imidazo[1,2-a]pyridin-7-ylmethyl)-4-[1-(2-methylpropyl)-1H-pyrazol-4-yl]benzamide]	720	0.32	231
O=C(NCc1ccn2ccnc2c1)c1ccc(-c2cnn(CC3COCCO3)c2)s1 (stereo not drawn) [Example 316, 5-[1-(1,4-dioxan-2-ylmethyl)-1H-pyrazol-4-yl]-N-(imidazo[1,2-a]pyridin-7-ylmethyl)thiophene-2-carboxamide]	6.34	0.169	42.1
O=C(NCc1ccn2ccnc2c1)c1ccc(-c2cnn(CCO)c2)s1 [Example 317, 5-[1-(2-hydroxyethyl)-1H-pyrazol-4-yl]-N-(imidazo[1,2-a]pyridin-7-ylmethyl)thiophene-2-carboxamide]	542	0.282	317
O=C(NCc1ccn2ccnc2c1)c1cnc(C2=CCN(C(=O)C3CCOCC3)CC2)s1 [Example 319, N-(imidazo[1,2-a]pyridin-7-ylmethyl)-2-[1-(tetrahydro-2H-pyran-4-ylcarbonyl)-1,2,3,6-tetrahydropyridin-4-yl]-1,3-thiazole-5-carboxamide]	29.3	0.192	466
CC(C)C(=O)N1CC=C(c2ncc(C(=O)NCc3ccn4ccnc4c3)s2)CC1 [Example 320, N-(imidazo[1,2-a]pyridin-7-ylmethyl)-2-[1-(2-methylpropanoyl)-1,2,3,6-tetrahydropyridin-4-yl]-1,3-thiazole-5-carboxamide]	171	0.208	96.3
CC[C@H](C)C(=O)N1CC[C@H](Oc2ccc(C(=O)NCc3ccn4ccnc4c3)cc2)C1 [Example 321, N-(imidazo[1,2-a]pyridin-7-ylmethyl)-4-({(3S)-1-[(2S)-2-methylbutanoyl]pyrrolidin-3-yl}oxy)benzamide]	1130	0.792	3160
CC(C)(C)OC(=O)N1CCC(c2ccc(C(=O)Nc3ccn4ccnc4c3)cc2)CC1 [Example 322, tert-butyl 4-[4-(imidazo[1,2-a]pyridin-7-ylcarbamoyl)phenyl]piperidine-1-carboxylate]	> 10000	34.1	6040
CC(C)(C)OC(=O)N1CCC(c2ccc(C(=O)Nc3ccc4nccn4c3)cc2)CC1 [Example 323, tert-butyl 4-[4-(imidazo[1,2-a]pyridin-6-ylcarbamoyl)phenyl]piperidine-1-carboxylate]	175	0.232	1400
CC(C)C(=O)NC1(c2ccc(C(=O)NCc3ccn4ccnc4c3)s2)COC1 [Example 324, N-(imidazo[1,2-a]pyridin-7-ylmethyl)-5-{3-[(2-methylpropanoyl)amino]oxetan-3-yl}thiophene-2-carboxamide]	54.7	0.752	981
